This is an account of results in patent US9586963B2 (GENFIT, priority 2011, dated 2017).

Counter-ions that a name gives are not always drawn. Bounds are passed on as bounds.

The test addresses T1, Rev-Erb alpha (Homo sapiens, UniProt P20393).
T1 sequence (P20393 284-614 limits assumed): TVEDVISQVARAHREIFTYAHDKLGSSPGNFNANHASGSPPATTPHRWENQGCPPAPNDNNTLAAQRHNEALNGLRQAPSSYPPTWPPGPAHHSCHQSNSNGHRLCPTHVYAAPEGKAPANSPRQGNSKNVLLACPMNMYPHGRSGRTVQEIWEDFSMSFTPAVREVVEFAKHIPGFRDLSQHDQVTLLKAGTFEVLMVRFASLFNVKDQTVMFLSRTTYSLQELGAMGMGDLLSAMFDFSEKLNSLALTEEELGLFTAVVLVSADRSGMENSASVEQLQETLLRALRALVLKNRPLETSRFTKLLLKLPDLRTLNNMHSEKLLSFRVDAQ
In words: M2H (mammalian two-hybrid) cellular activation assay of Rev-Erb alpha. Conditions: M2H assay, HEK293 cells; for EC50: Gal4-Rev-Erb alpha / VP16-NCoR, luciferase reporter; for Emax: relative to DMSO, at the tested dose, read-out: TOP activation. Type of test: cell-based. Here is the method:
In this system, Rev-Erb alpha or Rev-Erb beta is expressed as a fusion to the Gal4 DNA-binding domain and the cofactor NCoR is expressed as a fusion to the activation domain of the Herpes Simplex Virus tegument protein VP16. These fusion proteins were included in plasmids at a concentration of 1 μg/μL. The pBS-SK+ vector was added to the preparation to adjust the DNA quantity to a fixed value for each condition.
The transfection mix (Jet-PEI protocol, Polyplus transfection) comprised: • 3 mL of Jet PEI Mix (180 μL Jet-Pei and NaCl at 150 mM) and • 3 mL of the DNA Mix or of the DNA Mix control (wherein the Gal4-Rev-Erb alpha plasmid was replaced by a pGal4phi plasmid).
DNA Mix comprised 1.2 mL of DNA and 1.8 mL of NaCl at 150 mM with, in a T225 flask: • 90 ng of Gal4-Rev-Erb alpha, or 90 ng of Gal4-Rev-Erb beta, • 4500 ng of VP16-NCoR, • 27000 ng of Gal4-RE and • 13410 ng of pBS-SK+. Cells
HEK293 cells were cultured in DMEM (Invitrogen 41965) comprising 10% FBS, P/S, 1% glutamine, 1% pyruvate (Invitrogen 11360) and 1% amino acids (Invitrogen 11140). Cells were then batch co-transfected with plasmid vectors (described in the table above) using as Jet-PEI as reagent (Polyplus) following the protocol specified below.
The 6 mL-transfection mix was transferred in a T225 flask. HEK293 cells were then added at a concentration of 12 Millions of cells for 54 mL of medium (DMEM comprising 10% FBS and 1% P/S). Cells incubated over-night at 37° C. and under 5% CO2.
This cell-based assay is performed using 384-well Greiner white plates (Reference 781080). After the incubation, cells were rinsed with PBS, trypsinized, centrifuged and resuspended in free-serum DMEM without phenol red (Invitrogen 31053). Cells were counted and adjusted to 0.5 Million per mL and plated at a concentration of 10,000 cells in 20 μL per well. They were incubated a minimum of 4 hours at 37° C. under 5% CO2. Cells were treated with 20 μL of the compound to analyze (concentration of 2× diluted in DMEM without FBS containing a maximum of 1% DMSO) and incubated over-night (18 hours, 37° C. and 5% CO2). Each compound has been tested at 6 different concentrations to depict a dose-effect allowing the measure of biochemical parameters such as EC50 and TOP activation (%).
Cells were incubated 30 minutes with 40 μL/well of Steady Glow (Promega) and luminescence was read with TECAN Genios Pro (100 ms/w). Four experiments were carried out for each compound.
Each compound has been tested at 6 different concentrations to depict a dose-effect allowing the measure of biochemical parameters such as EC50 and TOP activation (%).
The mammalian two-hybrid system (M2H) assay consists herein in studying the ability of compounds according to the invention to activate Rev-Erbalpha in cells and thus modulate the interaction with its corepressor. The interaction of the two proteins is assessed with the help of the Luciferase reporter gene. HEK293 cells were transfected with two gene constructions: Gal4-RE VP16-NCoR and Gal4-Rev-Erbalpha or with Gal4-RE, sVP16-NCoR and Gal4-Rev-Erb beta.
The ability of compounds according to the invention of activating Rev-Erbalpha alpha or Rev-Erb beta was assessed in the described cell-based assay. EC50 and TOP activation (%) were measured.

The compound `FC(F)(F)c1ccc(-c2ccncc2)c(Oc2ccc3nnc(Cl)n3n2)c1` [Cpd.4-79, 3-chloro-6-(2-(pyridin-4-yl)-5-(trifluoromethyl)phenoxy)-[1,2,4]triazolo[4,3-b]pyridazine hydrochloride] had an EC50 of 1000 to 6000 nM.

Take `COc1ncccc1-c1ccc(C(F)(F)F)cc1Oc1ccc2nnc(Cl)n2n1` [Cpd.4-80, 3-chloro-6-(2-(2-methoxypyridin-3-yl)-5-(trifluoromethyl)phenoxy)-[1,2,4]triazolo[4,3-b]pyridazine hydrochloride]: the EC50 fell in the range of 100 to 1000 nM.

With `COc1ccc(-c2ccc(C(F)(F)F)cc2Oc2ccc3nnc(Cl)n3n2)cn1` [Cpd.4-81, 3-chloro-6-(2-(6-methoxypyridin-3-yl)-5-(trifluoromethyl)phenoxy)-[1,2,4]triazolo[4,3-b]pyridazine], the EC50 fell in the range of 100 to 1000 nM.

Take `COc1cncc(-c2ccc(C(F)(F)F)cc2Oc2ccc3nnc(Cl)n3n2)c1` [Cpd.4-82, 3-chloro-6-(2-(5-methoxypyridin-3-yl)-5-(trifluoromethyl)phenoxy)-[1,2,4]triazolo[4,3-b]pyridazine]: the EC50 lay within 1000 to 6000 nM.

Compound `CCOc1ccc(-c2ccc(C(F)(F)F)cc2Oc2ccc3nnc(Cl)n3n2)cn1` [Cpd.4-84, 3-chloro-6-(2-(6-ethoxypyridin-3-yl)-5-(trifluoromethyl)phenoxy)-[1,2,4]triazolo[4,3-b]pyridazine] yielded an EC50 of 1000 to 6000 nM.

As to `Cn1cc(-c2ccc(C(F)(F)F)cc2Oc2ccc3nnc(Cl)n3n2)ccc1=O` [Cpd.4-86, 5-(2-(3-chloro-[1,2,4]triazolo[4,3-b]pyridazin-6-yloxy)-4-(trifluoromethyl)phenyl)-1-methylpyridin-2(1H)-one], the EC50 was over 6000 nM and the Emax was over 130%.

For `Fc1ccc(-c2ccc(C(F)(F)F)cc2Oc2ccc3nnc(Cl)n3n2)cn1` [Cpd.4-87, 3-chloro-6-(2-(6-fluoropyridin-3-yl)-5-(trifluoromethyl)phenoxy)-[1,2,4]triazolo[4,3-b]pyridazine], the EC50 lay within 1000 to 6000 nM.

`CCCn1cc(-c2ccc(C(F)(F)F)cc2Oc2ccc3nnc(Cl)n3n2)ccc1=O` [Cpd.4-88, 5-(2-(3-chloro-[1,2,4]triazolo[4,3-b]pyridazin-6-yloxy)-4-(trifluoromethyl)phenyl)-1-propylpyridin-2(1H)-one]: the EC50 was over 6000 nM and the Emax is over 130%.

For `CCCCn1cc(-c2ccc(C(F)(F)F)cc2Oc2ccc3nnc(Cl)n3n2)ccc1=O` [Cpd.4-89, 1-butyl-5-(2-(3-chloro-[1,2,4]triazolo[4,3-b]pyridazin-6-yloxy)-4-(trifluoromethyl)phenyl)pyridin-2(1H)-one], the EC50 was over 6000 nM and the Emax is over 130%.

Take `CCCOc1ccc(-c2ccc(C(F)(F)F)cc2Oc2ccc3nnc(Cl)n3n2)cn1` [Cpd.4-92, 3-chloro-6-(2-(6-propoxypyridin-3-yl)-5-(trifluoromethyl)phenoxy)-[1,2,4]triazolo[4,3-b]pyridazine hydrochloride]: the EC50 was over 6000 nM and the Emax was over 130%.

As to `Oc1cncc(-c2ccc(C(F)(F)F)cc2Oc2ccc3nnc(Cl)n3n2)c1` [Cpd.4-96, 5-(2-(3-chloro-[1,2,4]triazolo[4,3-b]pyridazin-6-yloxy)-4-(trifluoromethyl)phenyl)pyridin-3-ol], the EC50 is over 6000 nM and the Emax is over 130%.

`FC(F)(F)c1ccc(-c2ccccn2)c(Oc2ccc3nnc(Cl)n3n2)c1` [Cpd.4-97, 3-chloro-6-(2-(pyridin-2-yl)-5-(trifluoromethyl)phenoxy)-[1,2,4]triazolo[4,3-b]pyridazine hydrochloride]: the EC50 is 1000 to 6000 nM.

For the compound `Clc1nnc2ccc(Oc3ccccc3-c3cccnc3)nn12` [Cpd.4-98, 3-chloro-6-(2-(pyridin-3-yl)phenoxy)-[1,2,4]triazolo[4,3-b]pyridazine hydrochloride], the EC50 is over 6000 nM and the Emax is over 130%.

In the case of `COc1ccncc1-c1ccc(C(F)(F)F)cc1Oc1ccc2nnc(Cl)n2n1` [Cpd.4-100, 3-chloro-6-(2-(4-methoxypyridin-3-yl)-5-(trifluoromethyl)phenoxy)-[1,2,4]triazolo[4,3-b]pyridazine], the EC50 fell in the range of 1000 to 6000 nM.

As to `Clc1nnc2ccc(Oc3ccccc3-c3cscn3)nn12` [Cpd.4-103, 3-chloro-6-(2-(thiazol-4-yl)phenoxy)-[1,2,4]triazolo[4,3-b]pyridazine], the EC50 is over 6000 nM and the Emax was over 130%.

With `Clc1nnc2ccc(Oc3ccccc3-c3nccs3)nn12` [Cpd.4-104, 3-chloro-6-(2-(thiazol-2-yl)phenoxy)-[1,2,4]triazolo[4,3-b]pyridazine], the EC50 is over 6000 nM and the Emax was over 130%.

For the compound `FC(F)(F)c1ccc(-c2nccs2)c(Oc2ccc3nnc(Cl)n3n2)c1` [Cpd.4-105, 3-chloro-6-(2-(thiazol-2-yl)-5-(trifluoromethyl)phenoxy)-[1,2,4]triazolo[4,3-b]pyridazine], the EC50 was in the range of 1000 to 6000 nM.

Take `FC(F)(F)c1ccc(-c2cscn2)c(Oc2ccc3nnc(Cl)n3n2)c1` [Cpd.4-106, 3-chloro-6-(2-(thiazol-4-yl)-5-(trifluoromethyl)phenoxy)-[1,2,4]triazolo[4,3-b]pyridazine]: the EC50 was 1000 to 6000 nM.

As for `Fc1ccc(Oc2ccc3nnc(Cl)n3n2)c(-c2cccnc2)c1` [Cpd.4-107, 3-chloro-6-(4-fluoro-2-(pyridin-3-yl)phenoxy)-[1,2,4]triazolo[4,3-b]pyridazine], the EC50 is over 6000 nM and the Emax is over 130%.

`Clc1nnc2ccc(Oc3ccccc3-c3ccsc3)nn12` [Cpd.4-108, 3-chloro-6-(2-(thiophen-3-yl)phenoxy)-[1,2,4]triazolo[4,3-b]pyridazine] returned an EC50 of 100 to 1000 nM.

`Cc1noc(C)c1-c1ccccc1Oc1ccc2nnc(Cl)n2n1` [Cpd.4-109, 3-chloro-6-(2-(3,5-dimethylisoxazol-4-yl)phenoxy)-[1,2,4]triazolo[4,3-b]pyridazine]: the EC50 is over 6000 nM and the Emax was over 130%.

Turning to `Clc1nnc2ccc(Oc3ccccc3-c3ccc4scnc4c3)nn12` [Cpd.4-110, 6-(2-(benzo[d]thiazol-5-yl)phenoxy)-3-chloro-[1,2,4]triazolo[4,3-b]pyridazine], the 50% effective concentration (EC50) was 100 to 1000 nM.

Compound `COc1ccccc1-c1ccccc1Oc1ccc2nnc(Cl)n2n1` [Cpd.4-111, 3-chloro-6-(2′-methoxybiphenyl-2-yloxy)-[1,2,4]triazolo[4,3-b]pyridazine] yielded an EC50 of 100 to 1000 nM.

For `COc1ccc(-c2cccc(F)c2)c(Oc2ccc3nnc(Cl)n3n2)c1` [Cpd.4-112, 3-chloro-6-[(3′-fluoro-4-methoxybiphenyl-2-yl)oxy]-[1,2,4]triazolo[4,3-b]pyridazine], the 50% effective concentration (EC50) is under 100 nM.

Take `Clc1ccc(Oc2ccc(Cl)cc2Oc2ccc3nnc(Cl)n3n2)c(Cl)c1` [Cpd.4-114, 3-chloro-6-[5-chloro-2-(2,4-dichloro-phenoxy)-phenoxy]-[1,2,4]triazolo[4,3-b]pyridazine]: the EC50 was in the range of 100 to 1000 nM.

As to `Fc1ccc(Oc2ccc3nnc(Cl)n3n2)c(-c2ccccc2F)c1` [Cpd.4-121, 3-chloro-6-(2′,5-difluorobiphenyl-2-yloxy)-[1,2,4]triazolo[4,3-b]pyridazine], the EC50 is 100 to 1000 nM.

By EC50 is commonly meant the concentration needed to bring the measured effect to its halfway point.
